In article PMC4186475 (Influenza and Other Respiratory Viruses, 2013):

Legend:
[1] = system: neuraminidase (NA) of influenza B viruses; type: biochemical, influenza B virus
[2] = system: neuraminidase (NA) of influenza A (H3N2) viruses; type: biochemical, influenza A (H3N2) virus

| Compound | Fold change in IC50 of test viruses, Approach #3 [1] | fold change in IC50 of outliers [1] | Fold change in IC50 of test viruses, Approach #1 [2] | Fold change in IC50 of test viruses, Approach #2 [2] | Fold change in IC50 of test viruses, Approach #3 [2] | fold change in IC50 of outliers [2] |
| --- | --- | --- | --- | --- | --- | --- |
| CCOC(=O)C1=C[C@@H](OC(CC)CC)[C@H](NC(C)=O)[C@@H](N)C1 [Oseltamivir, Oseltamivir (carboxylate)] | 6 (1) fold | 53·02 (6) fold | – | – | – | – |
| CC(=O)N[C@H]1[C@H]([C@H](O)[C@H](O)CO)OC(C(=O)O)=C[C@@H]1N=C(N)N [Zanamivir, zanamivir] | 5 (1) fold | 5·11 (5) fold | 132 (1) fold | 132 (1) fold | 91 (1) fold | 23·75 (91) fold |
